Consider 21 compounds from US10106544B2, “1,2-dihydro-3H-pyrrolo[1,2-C]imidazol-3-one derivatives and their use as antibacterial agents” (priority 2014, dated 2018).

What all share (assay): Bacterial growth minimal inhibitory concentration (microdilution, cation-adjusted Mueller-Hinton Broth)
Holding throughout (type): cell-based

One test relates to E. coli ATCC25922. As to conditions: quinolone-sensitive strain; for MIC: Escherichia coli, ATCC25922, read-out: MIC for E. coli ATCC25922. How it is done: (§1) Minimal Inhibitory Concentrations (MICs; mg/L) were determined in cation-adjusted Mueller-Hinton Broth by a microdilution method following the description given in “Methods for Dilution Antimicrobial Susceptibility Tests for Bacteria that Grow Aerobically”, Approved standard, 7th ed., a Clinical and Laboratory Standards Institute (CLSI) Document M7-A7, Wayne, Pa., USA (2006).
(§2) All Example compounds were tested against several Gram-positive and Gram-negative bacteria. […] K. pneumoniae A-651 is a multiply-resistant strain (in particular quinolone-resistant), while E. coli ATCC25922 and P. aeruginosa ATCC27853 are quinolone-sensitive strains.

A further test has as its system K. pneumoniae A-651. The note with it: multiply-resistant strain (in particular quinolone-resistant); for MIC: Klebsiella pneumoniae, A651, read-out: MIC for K. Pneumoniae A-651. How it is done: as §1, §2
A further test deals with P. aeruginosa ATCC27853. The note with it: for MIC: Pseudomonas aeruginosa, ATCC27853, quinolone-sensitive strain, read-out: MIC for P. aeruginosa ATCC27853. How it is done:
as §1, §2

The structures appear in SMILES notation. ≈ marks a conversion by molar mass, not a printed value.

In the case of `C[C@@](CCN1Cc2cc(C#Cc3ccc(COC(N)=O)cc3)cn2C1=O)(C(=O)NO)S(C)(=O)=O` [Example 32, (R)-4-((2-(4-(hydroxyamino)-3-methyl-3-(methylsulfonyl)-4-oxobutyl)-3-oxo-2,3-dihydro-1H-pyrrolo[1,2-c]imidazol-6-yl)ethynyl)benzyl carbamate], the MIC in the test with E. coli ATCC25922 is not above 0.063 µg/mL; in the test on K. pneumoniae A-651, 0.25 µg/mL (≈ 0.512 µM); in the test with P. aeruginosa ATCC27853 it was 0.5 µg/mL (≈ 1.02 µM).
`C[C@@](CCN1Cc2cc(C#Cc3ccc(NC(=O)CO)c(F)c3)cn2C1=O)(C(=O)NO)S(C)(=O)=O` [Example 21, (R)-4-(6-((3-fluoro-4-(2-hydroxyacetamido)phenyl)ethynyl)-3-oxo-1H-pyrrolo[1,2-c]imidazol-2(3H)-yl)-N-hydroxy-2-methyl-2-(methylsulfonyl)butanamide]: the figures for the MIC in the test with E. coli ATCC25922, in the test with K. pneumoniae A-651 and in the test with P. aeruginosa ATCC27853 were 0.25 µg/mL (≈ 0.494 µM), 1 µg/mL (≈ 1.97 µM) and 1 µg/mL (≈ 1.97 µM), respectively.
On to `C[C@@](CCN1Cc2cc(C#CC#CC3(O)CCOCC3)cn2C1=O)(C(=O)NO)S(C)(=O)=O` [Example 64, (R)-N-hydroxy-4-(6-((4-hydroxytetrahydro-2H-pyran-4-yl)buta-1,3-diyn-1-yl)-3-oxo-1H-pyrrolo[1,2-c]imidazol-2(3H)-yl)-2-methyl-2-(methylsulfonyl)butanamide], for which the MIC in the test on E. coli ATCC25922 was determined as 4 µg/mL (≈ 8.63 µM); in the test on K. pneumoniae A-651, 8 µg/mL (≈ 17.3 µM); in the test on P. aeruginosa ATCC27853, 4 µg/mL (≈ 8.63 µM).
With `C[C@H](O)c1ccc(C#Cc2cc3n(c2)C(=O)N(CC[C@](C)(C(=O)NO)S(C)(=O)=O)C3)cc1` [Example 14], in the test on E. coli ATCC25922, the “MIC for E. coli ATCC25922” value is 0.125 µg/mL. Moreover, the “MIC for K. Pneumoniae A-651” value against K. pneumoniae A-651 stood at 0.25 µg/mL. In the test on P. aeruginosa ATCC27853 (quinolone-sensitive strain), the “MIC for P. aeruginosa ATCC27853” value was found to be 1 µg/mL.
As to `C[C@@](CCN1Cc2cc(C#Cc3ccc(C4(CO)COC4)cc3)cn2C1=O)(C(=O)NO)S(C)(=O)=O` [Example 70, (R)-N-hydroxy-4-(6-((4-(3-(hydroxymethyl)oxetan-3-yl)phenyl)ethynyl)-3-oxo-1H-pyrrolo[1,2-c]imidazol-2(3H)-yl)-2-methyl-2-(methylsulfonyl)butanamide], the MIC stood at 1 µg/mL (≈ 1.99 µM) in the test on E. coli ATCC25922, 2 µg/mL (≈ 3.99 µM) with K. pneumoniae A-651 and 2 µg/mL (≈ 3.99 µM) in the test on P. aeruginosa ATCC27853.
As for `C[C@@](CCN1Cc2cc(C#Cc3ccc(N4CCC(N)CC4)cc3)cn2C1=O)(C(=O)NO)S(C)(=O)=O` [Example 81, (R)-4-(6-((4-(4-aminopiperidin-1-yl)phenyl)ethynyl)-3-oxo-1H-pyrrolo[1,2-c]imidazol-2(3H)-yl)-N-hydroxy-2-methyl-2-(methylsulfonyl)butanamide], the MIC in the test on E. coli ATCC25922 was found to be 8 µg/mL (≈ 15.6 µM); in the test with K. pneumoniae A-651 it was 16 µg/mL (≈ 31.2 µM); in the test with P. aeruginosa ATCC27853, 2 µg/mL (≈ 3.89 µM).
For the compound `C[C@@](CCN1Cc2cc(C#Cc3ccc(C4(CO)CC4)cc3)cn2C1=O)(C(=O)NO)S(C)(=O)=O` [Example 7, (R)-N-hydroxy-4-(6-((4-(1-(hydroxymethyl)cyclopropyl)phenyl)ethynyl)-3-oxo-1H-pyrrolo[1,2-c]imidazol-2(3H)-yl)-2-methyl-2-(methylsulfonyl)butanamide], the MIC with E. coli ATCC25922 is 0.125 µg/mL (≈ 0.257 µM); in the test on K. pneumoniae A-651, 0.25 µg/mL (≈ 0.515 µM); in the test on P. aeruginosa ATCC27853, 0.5 µg/mL (≈ 1.03 µM).
In the case of `C[C@@](CCN1Cc2cc(C#CC#CC[C@@H]3C[C@@H]3CO)cn2C1=O)(C(=O)NO)S(C)(=O)=O` [Example 12, (R)-N-hydroxy-4-(6-(5-((1S,2S)-2-(hydroxymethyl)cyclopropyl)penta-1,3-diyn-1-yl)-3-oxo-1H-pyrrolo[1,2-c]imidazol-2(3H)-yl)-2-methyl-2-(methylsulfonyl)butanamide], the MIC with E. coli ATCC25922, in the test with K. pneumoniae A-651 and in the test on P. aeruginosa ATCC27853 was 0.25 µg/mL (≈ 0.559 µM) in each case.
For the compound `CC(C)(O)c1ncc(C#Cc2cc3n(c2)C(=O)N(CC[C@](C)(C(=O)NO)S(C)(=O)=O)C3)s1` [Example 76, (R)-N-hydroxy-4-(6-((2-(2-hydroxypropan-2-yl)thiazol-5-yl)ethynyl)-3-oxo-1H-pyrrolo[1,2-c]imidazol-2(3H)-yl)-2-methyl-2-(methylsulfonyl)butanamide], the values for the MIC with E. coli ATCC25922, in the test on K. pneumoniae A-651 and in the test on P. aeruginosa ATCC27853 were 1 µg/mL (≈ 2.08 µM), 2 µg/mL (≈ 4.16 µM) and 2 µg/mL (≈ 4.16 µM), respectively.
Consider `CN1CCN(Cc2ccc(C#Cc3cc4n(c3)C(=O)N(CCC(C)(C(=O)NO)S(C)(=O)=O)C4)cc2)CC1` (racemic) [RE6, (RS)—N-hydroxy-2-methyl-4-(6-((4-((4-methylpiperazin-1-yl)methyl)phenyl)ethynyl)-3-oxo-1H-pyrrolo[1,2-c]imidazol-2(3H)-yl)-2-(methylsulfonyl)butanamide], for which the MIC with E. coli ATCC25922 was determined as 2 µg/mL (≈ 3.79 µM); with K. pneumoniae A-651, 8 µg/mL (≈ 15.2 µM); with P. aeruginosa ATCC27853, 2 µg/mL (≈ 3.79 µM).
Turning to `CC(C)(N)C#CC#Cc1cc2n(c1)C(=O)N(CC[C@](C)(C(=O)NO)S(C)(=O)=O)C2` [Example 31, (R)-4-(6-(5-amino-5-methylhexa-1,3-diyn-1-yl)-3-oxo-1H-pyrrolo[1,2-c]imidazol-2(3H)-yl)-N-hydroxy-2-methyl-2-(methylsulfonyl)butanamide], the MIC with E. coli ATCC25922, in the test on K. pneumoniae A-651 and in the test on P. aeruginosa ATCC27853 was 1 µg/mL (≈ 2.38 µM) in each case.
`C[C@@](CCN1Cc2cc(C#CC#CC3(CO)CCC3)cn2C1=O)(C(=O)NO)S(C)(=O)=O` [Example 56, (R)-N-hydroxy-4-(6-((1-(hydroxymethyl)cyclobutyl)buta-1,3-diyn-1-yl)-3-oxo-1H-pyrrolo[1,2-c]imidazol-2(3H)-yl)-2-methyl-2-(methylsulfonyl)butanamide]: the MIC was 0.25 µg/mL (≈ 0.559 µM) with E. coli ATCC25922, 1 µg/mL (≈ 2.23 µM) with K. pneumoniae A-651 and 2 µg/mL (≈ 4.47 µM) with P. aeruginosa ATCC27853.
`COc1ccc(-c2cc3n(c2)C(=O)N(CC[C@](C)(C(=O)NO)S(C)(=O)=O)C3)c(F)c1` [Example 1, (R)-4-(6-(2-fluoro-4-methoxyphenyl)-3-oxo-1H-pyrrolo[1,2-c]imidazol-2(3H)-yl)-N-hydroxy-2-methyl-2-(methylsulfonyl)butanamide]: the MIC is 0.125 µg/mL (≈ 0.284 µM) with E. coli ATCC25922, not above 0.063 µg/mL in the test with K. pneumoniae A-651 and 1 µg/mL (≈ 2.28 µM) in the test with P. aeruginosa ATCC27853.
Turning to `C[C@@](CCN1Cc2cc(C#Cc3ccc([C@H](O)CO)cc3)cn2C1=O)(C(=O)NO)S(C)(=O)=O` [Example 18, (R)-4-(6-((4-((S)-1,2-dihydroxyethyl)phenyl)ethynyl)-3-oxo-1H-pyrrolo[1,2-c]imidazol-2(3H)-yl)-N-hydroxy-2-methyl-2-(methylsulfonyl)butanamide], the values for the MIC with E. coli ATCC25922, in the test on K. pneumoniae A-651 and with P. aeruginosa ATCC27853 were 0.5 µg/mL (≈ 1.05 µM), 1 µg/mL (≈ 2.1 µM) and 1 µg/mL (≈ 2.1 µM), respectively.
For the compound `C[C@@](CCN1Cc2cc(C#CC#C[C@H](O)CO)cn2C1=O)(C(=O)NO)S(C)(=O)=O` [Example 11, (R)-4-(6-((S)-5,6-dihydroxyhexa-1,3-diyn-1-yl)-3-oxo-1H-pyrrolo[1,2-c]imidazol-2(3H)-yl)-N-hydroxy-2-methyl-2-(methylsulfonyl)butanamide], the MIC in the test with E. coli ATCC25922 was found to be 8 µg/mL (≈ 18.9 µM); with K. pneumoniae A-651 it was 16 µg/mL (≈ 37.8 µM); with P. aeruginosa ATCC27853 it was 8 µg/mL (≈ 18.9 µM).
Consider `C[C@@](CCN1Cc2cc(C#CC#CC3(COC(N)=O)CC3)cn2C1=O)(C(=O)NO)S(C)(=O)=O` [Example 35, (R)-(1-((2-(4-(hydroxyamino)-3-methyl-3-(methylsulfonyl)-4-oxobutyl)-3-oxo-2,3-dihydro-1H-pyrrolo[1,2-c]imidazol-6-yl)buta-1,3-diyn-1-yl)cyclopropyl)methyl carbamate], for which the MIC amounted to 0.25 µg/mL (≈ 0.525 µM) in the test with E. coli ATCC25922, 0.5 µg/mL (≈ 1.05 µM) with K. pneumoniae A-651 and 2 µg/mL (≈ 4.2 µM) in the test with P. aeruginosa ATCC27853.
Regarding `CCOc1ccc(-c2cc3n(c2)C(=O)N(CC[C@](C)(C(=O)NO)S(C)(=O)=O)C3)c(Cl)c1` [Example 49, (R)-4-(6-(2-chloro-4-ethoxyphenyl)-3-oxo-1H-pyrrolo[1,2-c]imidazol-2(3H)-yl)-N-hydroxy-2-methyl-2-(methylsulfonyl)butanamide], the MIC in the test with E. coli ATCC25922 is not above 0.063 µg/mL; in the test with K. pneumoniae A-651, 0.125 µg/mL (≈ 0.266 µM); in the test on P. aeruginosa ATCC27853, 4 µg/mL (≈ 8.51 µM).
Taken in the same sequence, the figures for `C[C@@](CCN1Cc2cc(-c3ccc(OCCO)cc3F)cn2C1=O)(C(=O)NO)S(C)(=O)=O` [Example 41, (R)-4-(6-(2-fluoro-4-(2-hydroxyethoxy)phenyl)-3-oxo-1H-pyrrolo[1,2-c]imidazol-2(3H)-yl)-N-hydroxy-2-methyl-2-(methylsulfonyl)butanamide] were 1 µg/mL (≈ 2.13 µM), 2 µg/mL (≈ 4.26 µM) and 4 µg/mL (≈ 8.52 µM).
As for `CC(C)(O)C#CC#Cc1cc2n(c1)C(=O)N(CCC(C)(C(=O)NO)S(C)(=O)=O)C2` (racemic) [RE5, (RS)—N-hydroxy-4-(6-(5-hydroxy-5-methylhexa-1,3-diyn-1-yl)-3-oxo-1H-pyrrolo[1,2-c]imidazol-2(3H)-yl)-2-methyl-2-(methylsulfonyl)butanamide], the MIC with E. coli ATCC25922 was found to be 2 µg/mL (≈ 4.75 µM); in the test with K. pneumoniae A-651 it was 8 µg/mL (≈ 19 µM); in the test with P. aeruginosa ATCC27853, 4 µg/mL (≈ 9.49 µM).
As for `C[C@@](CCN1Cc2cc(C#CC#CCC3(O)COC3)cn2C1=O)(C(=O)NO)S(C)(=O)=O` [Example 63, (R)-N-hydroxy-4-(6-(5-(3-hydroxyoxetan-3-yl)penta-1,3-diyn-1-yl)-3-oxo-1H-pyrrolo[1,2-c]imidazol-2(3H)-yl)-2-methyl-2-(methylsulfonyl)butanamide], the MIC was determined as 2 µg/mL (≈ 4.45 µM) in the test with E. coli ATCC25922, 4 µg/mL (≈ 8.9 µM) in the test on K. pneumoniae A-651 and 4 µg/mL (≈ 8.9 µM) with P. aeruginosa ATCC27853.
On to `C[C@@](CCN1Cc2cc(C#CC#CC(CO)C3CCC3)cn2C1=O)(C(=O)NO)S(C)(=O)=O` (mixture of isomers) [Example 60, (2R)-4-(6-((5RS)-5-cyclobutyl-6-hydroxyhexa-1,3-diyn-1-yl)-3-oxo-1H-pyrrolo[1,2-c]imidazol-2(3H)-yl)-N-hydroxy-2-methyl-2-(methylsulfonyl)butanamide], for which the MIC in the test with E. coli ATCC25922 came to 0.5 µg/mL; with K. pneumoniae A-651, 1 µg/mL; in the test with P. aeruginosa ATCC27853, 4 µg/mL.
